One experiment has as its system MDA-MB-231 cells. As to the kind of experiment: CellTiter-Glo Luminescent Cell Viability Assay on ER-negative breast cancer MDA-MB-231 cells. In kind it is cell-based. To be noted: average ± standard deviation when tested more than 3 times, read-out: Inhibition of the viability of breast cancer cells, IC50. Here is the method: A: In Vitro CellTiter-Glo® Luminescent Cell Viability Assay on ER-Negative Breast Cancer MDA-MB-231 Cells:
MDA-MB-231 cells were maintained at 37° C., under 5% CO2 atmosphere in DMEM containing 10% fetal calf serum. The cells were seeded on 96-well plate at a density of 6×10^3 cells per well. MDA-MB-231 cells were treated with a test compound dissolved in DMSO at the concentrations of zero, 0.3 μM, 0.5 μM, 1 μM, 2 μM, 3 μM, 5 μM, 10 μM, 20 μM, 30 μM, 50 μM and 100 μM for 72 hours. Treated cells were examined by CellTiter-Glo® Luminescent Cell Viability Assay Kit (Promega), and luminescence values were recorded with Envision.
On the technique in general: Cellular ATP, detected with luciferase, serves as a proxy for viable cell number.

For the next experiment, the system named is MCF7 cells. As to the kind of experiment: CellTiter-Glo Luminescent Cell Viability Assay on ER-positive breast cancer MCF-7 cells. In kind it is cell-based, human. To be noted: average ± standard deviation when tested more than 3 times, read-out: Inhibition of the viability of breast cancer cells, IC50. An excerpt: B: In Vitro CellTiter-Glo® Luminescent Cell Viability Assay on ER-Positive Breast Cancer MCF-7 Cells:
MCF7 cells are breast cancer cell lines that highly express ER-66, ER-46 and ER-36. (Relevance of breast cancer cell lines as models for breast tumours: an update. Marc Lacroix, Guy Leclercq, Breast Cancer Research and Treatment (2004) 83, 249-289; Wang et al., Proc. Natl. Acad. Sci. U.S.A. 103:9063-9068 (2006)). MCF7 cells were obtained from ATCC and maintained in Dulbecco's Modified Eagles Medium (DMEM) and 10% fetal calf serum at 37° C., under 5% CO2 atmosphere. The cells were seeded on 96-well plate at a density of 6×10^3 cells per well. MCF7 cells were treated with a test compound dissolved in DMSO at the concentrations of zero, 0.3 μM, 0.5 μM, 1 μM, 2 μM, 3 μM, 5 μM, 10 μM, 20 μM, 30 μM, 50 μM and 100 μM for 72 hours. Treated cells were examined by CellTiter-Glo® Luminescent Cell Viability Assay Kit (Promega), and luminescence values were recorded with Envision.

In another experiment the test system is Hep3B2.1-7 cells. As to the kind of experiment: MTT assay, in vitro growth of liver cancer Hep3B2.1-7 cells. It is filed as cell-based. Particulars: 72 hours; for IC50: read-out: Inhibition on liver cancer cells, IC50. The protocol: The liver cancer Hep3B2.1-7 cells were obtained from ATCC. Cells were incubated in 1640 culture medium with 5% fetal calf serum and 100 U/ml double-antibody in a cell incubator at 37° C., 5% CO2 atmosphere and passaged via conventional methods. The sample was dissolved in DMSO, formulated into 50 mg/ml stocking solution, and stored at 4° C. The test solutions at 50, 25, 12.5 and 6.25 μg/ml were formulated with culture medium immediately before use.
The adherent cells were digested with cell digestive solution, and then the exfoliated cells were collected and counted. The cell suspension was formulated with 1640 culture medium containing 5% fetal calf serum (5.0×10^4/ml). The cell suspension was seeded on 96-well plate with 100 μl/well, and maintained in a cell incubator at 37° C., 5% CO2 atmosphere for 24 hours. After that, the compounds at various concentrations were added, where solvent was taken as negative control and Taxol as positive control. 10 μl MTT (5 mg/ml) was added after 72 hours. The supernatant was removed after cultivation for 3 hours more, 150 μl DMSO was added and the formazan was dissolved on shaking. OD values were measured at 570 nm after homogeneous mixing, and inhibition rate and IC50 values were calculated based on the mean of OD values from 3 wells.
In general terms: Formazan colour is commonly taken as a measure of viable cells.

Values after ≈ are worked out from the molar mass of the structure shown. Where two headings read alike, the source gives them in different places.

The IC50 is the concentration that gives 50% inhibition. Consider `COc1c(-c2ccc(O)c(C(F)(F)F)c2)oc2c(CC=C(C)C)c(O)c(CC=C(C)C)c(O)c2c1=O` [Compound 77, 2-(3-trifluoromethyl-4-hydroxyphenyl)-5,7-dihydroxy-3-methoxy-6,8-di(3-methyl-2-buten-1-yl)-4H-benzopyran-4-one], for which the IC50 is 15.4 µM with MDA-MB-231 cells (Homo sapiens, MDA-MB-231, 72 h); over 100 µM with MCF7 cells (Homo sapiens, MCF7, 72 h); 3.08 µg/mL (≈ 6.11 µM) with Hep3B2.1-7 cells.

As to `CC(=O)O[C@H]1C(=O)[C@@]2(C)[C@H]([C@H](OC(=O)c3ccccc3)[C@]3(O)C[C@H](OC(=O)[C@H](O)[C@@H](NC(=O)c4ccccc4)c4ccccc4)C(C)=C1C3(C)C)[C@]1(OC(C)=O)CO[C@@H]1C[C@@H]2O` [Taxol, reference compound], the IC50 in the experiment on Hep3B2.1-7 cells turned out to be 42.8 µg/mL (≈ 50.1 µM).

With `COc1c(-c2ccc(C(N)=O)cc2)oc2c(CC=C(C)C)c(O)c(CC=C(C)C)c(O)c2c1=O` [Compound 60, 4-[5,7-dihydroxy-3-methoxy-6,8-di(3-methyl-2-buten-1-yl)-4-oxo-4H-benzopyran-2-yl]benzamide], the IC50 with MDA-MB-231 cells (Homo sapiens, MDA-MB-231, 72 h) amounted to 6.36 µM; with MCF7 cells (Homo sapiens, MCF7, 72 h), 3.02 µM; in the experiment with Hep3B2.1-7 cells it was 9.95 µg/mL (≈ 21.5 µM).

With `COc1c(-c2ccc(O)c(Cl)c2)oc2c(CC=C(C)C)c(O)c(CC=C(C)C)c(O)c2c1=O` [Compound 76, 2-(3-chloro-4-hydroxyphenyl)-5,7-dihydroxy-3-methoxy-6,8-di(3-methyl-2-buten-1-yl)-4H-benzopyran-4-one], the IC50 in the experiment on MDA-MB-231 cells (Homo sapiens, MDA-MB-231, 72 h) amounted to 3 µM; in the experiment with MCF7 cells (Homo sapiens, MCF7, 72 h), 4.08 µM; with Hep3B2.1-7 cells, 5.79 µg/mL (≈ 12.3 µM).

`COc1c(-c2ccc(F)c(O)c2)oc2c(CC=C(C)C)c(O)c(CC=C(C)C)c(O)c2c1=O` [Compound 78, 2-(3-hydroxy-4-fluorophenyl)-5,7-dihydroxy-3-methoxy-6,8-di(3-methyl-2-buten-1-yl)-4H-benzopyran-4-one]: the IC50 in the experiment on MDA-MB-231 cells (Homo sapiens, MDA-MB-231, 72 h) came out at 5.36 µM; in the experiment with MCF7 cells (Homo sapiens, MCF7, 72 h) it was 5.46 µM; in the experiment with Hep3B2.1-7 cells, 8.95 µg/mL (≈ 19.7 µM).

`COc1c(-c2ccc(Cl)cc2)oc2c(CC=C(C)C)c(O)c(CC=C(C)C)c(O)c2c1=O` [Compound 10, 2-(4-chlorophenyl)-5,7-dihydroxy-3-methoxy-6,8-di(3-methyl-2-butylene-1-yl)-4H-benzopyran-4-one]: the IC50 with MDA-MB-231 cells (72 hours) is 8.89 µM; in the experiment on MCF7 cells (72 hours) it was over 100 µM. For the same molecule, the “Inhibition on liver cancer cells, IC50” value in the experiment on Hep3B2.1-7 cells worked out at 9.43 µg/mL.

`COc1c(-c2ccc(O)c(F)c2)oc2c(CC=C(C)C)c(O)c(CC=C(C)C)c(O)c2c1=O` [Compound 79, 2-(3-fluoro-4-hydroxyphenyl)-5,7-dihydroxy-3-methoxy-6,8-di(3-methyl-2-buten-1-yl)-4H-benzopyran-4-one]: the IC50 with MDA-MB-231 cells (Homo sapiens, MDA-MB-231, 72 h) stood at 3.64 µM; with MCF7 cells (Homo sapiens, MCF7, 72 h), 5.33 µM; in the experiment on Hep3B2.1-7 cells, 8.23 µg/mL (≈ 18.1 µM).

As to `COc1c(-c2ccc(S(N)(=O)=O)cc2)oc2c(CC=C(C)C)c(O)c(CC=C(C)C)c(O)c2c1=O` [Compound 63, 4-[5,7-dihydroxy-3-methoxy-6,8-di(3-methyl-2-buten-1-yl)-4-oxo-4H-benzopyran-2-yl]benzene sulfonamide], the IC50 in the experiment on MDA-MB-231 cells (Homo sapiens, MDA-MB-231, 72 h) is 4.87 µM; in the experiment on MCF7 cells (Homo sapiens, MCF7, 72 h) it was 6.06 µM; in the experiment on Hep3B2.1-7 cells, 14 µg/mL (≈ 28 µM).

Take `COc1c(-c2ccc(S(=O)(=O)N(C)C)cc2)oc2c(CC=C(C)C)c(O)c(CC=C(C)C)c(O)c2c1=O` [Compound 69, 4-[5,7-dihydroxy-3-methoxy-6,8-di(3-methyl-2-buten-1-yl)-4-oxo-4H-benzopyran-2-yl]-N,N-dimethylbenzene sulfonamide]: the IC50 in the experiment on MDA-MB-231 cells (Homo sapiens, MDA-MB-231, 72 h) was 1.87 µM; in the experiment on MCF7 cells (Homo sapiens, MCF7, 72 h), over 100 µM; in the experiment with Hep3B2.1-7 cells, 3.89 µg/mL (≈ 7.37 µM).

Take `COc1c(-c2ccc(C(C)(C)O)cc2)oc2c(CC=C(C)C)c(O)c(CC=C(C)C)c(O)c2c1=O` [Compound 66]: the IC50 in the experiment with MDA-MB-231 cells (72 hours) came to 2.86 µM; in the experiment with MCF7 cells (72 hours), 3.91 µM. For the same molecule, the “Inhibition on liver cancer cells, IC50” value with Hep3B2.1-7 cells was found to be 0.24 µg/mL.

For `CC(C)=CCc1c(O)c(CC=C(C)C)c2oc(-c3ccc(C)cc3)cc(=O)c2c1O` [Compound 87, 2-(4-methylphenyl)-5,7-dihydroxy-6,8-di(3-methyl-2-buten-1-yl)-4H-benzopyran-4-one], the IC50 in the experiment on MDA-MB-231 cells (Homo sapiens, MDA-MB-231, 72 h) was 16.3 µM; in the experiment with MCF7 cells (Homo sapiens, MCF7, 72 h), over 100 µM.

`COc1c(C2CCCC2)oc2c(CC=C(C)C)c(O)c(CC=C(C)C)c(O)c2c1=O` [Compound 36, 2-cyclopentyl-5,7-dihydroxy-3-methoxy-6,8-di(3-methyl-2-buten-1-yl)-4H-benzopyran-4-one]: the IC50 was over 100 µM in the experiment on MDA-MB-231 cells (Homo sapiens, MDA-MB-231, 72 h) and over 100 µM with MCF7 cells (Homo sapiens, MCF7, 72 h).

Consider `COc1c(-c2ccnc(Cl)c2)oc2c(CC=C(C)C)c(O)c(CC=C(C)C)c(O)c2c1=O` [Compound 55, 2-(2-chloropyridin-4-yl)-5,7-dihydroxy-3-methoxy-6,8-di(3-methyl-2-buten-1-yl)-4H-benzopyran-4-one], for which the IC50 in the experiment with MDA-MB-231 cells (Homo sapiens, MDA-MB-231, 72 h) was determined as 5.51 ± 0.02 µM; in the experiment on MCF7 cells (Homo sapiens, MCF7, 72 h), 4.17 ± 2.45 µM.

For the molecule `COc1c(C2CC2)oc2c(CC=C(C)C)c(O)c(CC=C(C)C)c(O)c2c1=O` [Compound 34, 2-cyclopropyl-5,7-dihydroxy-3-methoxy-6,8-di(3-methyl-2-buten-1-yl)-4H-benzopyran-4-one], the IC50 with MDA-MB-231 cells (Homo sapiens, MDA-MB-231, 72 h) was 25.6 µM; in the experiment on MCF7 cells (Homo sapiens, MCF7, 72 h) it was over 100 µM.

For the molecule `COc1c(-c2ccc(Cl)cc2F)oc2c(CC=C(C)C)c(O)c(CC=C(C)C)c(O)c2c1=O` [Compound 14, 2-(2-fluoro-4-chlorophenyl)-5,7-dihydroxy-3-methoxy-6,8-di(3-methyl-2-butylene-1-yl)-4H-benzopyran-4-one], the IC50 in the experiment with MDA-MB-231 cells (72 hours) is 23.6 µM; with MCF7 cells (72 hours) it was 13.5 µM.

Consider `COc1c(CC=C(C)C)c(OC)c2c(=O)c(OC)c(-c3ccc(Cl)c(F)c3)oc2c1CC=C(C)C` [Compound 82B, 2-(3-fluoro-4-chlorophenyl)-3,5,7-trimethoxy-6,8-di(3-methyl-2-buten-1-yl)-4H-benzopyran-4-one], for which the IC50 was 26.3 µM in the experiment on MDA-MB-231 cells (Homo sapiens, MDA-MB-231, 72 h) and over 100 µM in the experiment with MCF7 cells (Homo sapiens, MCF7, 72 h).

For `CCOc1ccc(-c2oc3c(CC=C(C)C)c(O)c(CC=C(C)C)c(O)c3c(=O)c2OC)cc1` [Compound 24, 2-(4-ethoxyphenyl)-5,7-dihydroxy-3-methoxy-6,8-di(3-methyl-2-buten-1-yl)-4H-benzopyran-4-one], the IC50 in the experiment on MDA-MB-231 cells (Homo sapiens, MDA-MB-231, 72 h) is over 100 µM; with MCF7 cells (Homo sapiens, MCF7, 72 h), over 100 µM.

Take `COc1c(-c2ccc(F)nc2)oc2c(CC=C(C)C)c(O)c(CC=C(C)C)c(O)c2c1=O` [Compound 54, 2-(6-fluoropyridin-3-yl)-5,7-dihydroxy-3-methoxy-6,8-di(3-3-methyl-2-buten-1-yl)-4H-benzopyran-4-one]: the IC50 with MDA-MB-231 cells (72 hours) came to 10.3 ± 0.38 µM; in the experiment on MCF7 cells (72 hours), 7.06 ± 3.16 µM.

On to `COc1c(-c2ccnn2C)oc2c(CC=C(C)C)c(O)c(CC=C(C)C)c(O)c2c1=O` [Compound 45, 2-(1-methyl-1H-pyrazol-5-yl)-5,7-dihydroxy-3-methoxy-6,8-di(3-methyl-2-buten-1-yl)-4H-benzopyran-4-one], for which the IC50 in the experiment with MDA-MB-231 cells (72 hours) was over 100 µM; with MCF7 cells (Homo sapiens, MCF7, 72 h), 31.1 µM.

For the molecule `COc1c(C2CCOC2)oc2c(CC=C(C)C)c(O)c(CC=C(C)C)c(O)c2c1=O` (centres unmarked) [Compound 38, 2-(terthydrofuran-3-yl)-5,7-dihydroxy-3-methoxy-6,8-di(3-methyl-2-buten-1-yl)-4H-benzopyran-4-one], the IC50 in the experiment with MDA-MB-231 cells (72 hours) is over 100 µM; in the experiment on MCF7 cells (72 hours), 22.9 µM.

Consider `COc1c(-c2cnn(C)c2)oc2c(CC=C(C)C)c(O)c(CC=C(C)C)c(O)c2c1=O` [Compound 46, 2-(1-methyl-1H-pyrazol-4-yl)-5,7-dihydroxy-3-methoxy-6,8-di(3-methyl-2-buten-1-yl)-4H-benzopyran-4-one], for which the IC50 in the experiment on MDA-MB-231 cells (Homo sapiens, MDA-MB-231, 72 h) is over 100 µM; with MCF7 cells (Homo sapiens, MCF7, 72 h), over 100 µM.

(Values after patent US9090583B2, “Benzopyrone estrogen receptor regulator” (BEIJING SHENOGEN PHARMA GROUP LTD., priority 2010, dated 2015).)
